Here are results for one molecule from US20220041627A1, “PRODRUGS OF ANTI-CANCER AND ANTI-AUTOIMMUNE DISEASES THERAPEUTIC AGENTS, AND METHODS OF MAKING AND USE THEREOF” (UNIVERSITY OF MARYLAND, BALTIMORE, priority 2018, published 2022).

One series deals with breast cancer MCF7 cells. The series can be described thus: Cell viability (CCK8) in breast cancer MCF7 cells. The class given is cell-based, human. The settings on record: different concentrations, compared with parent drug 5-FU. On the procedure:
(§1) FIGS. 2A and 2B illustrate the anticancer effects and selectivity of 5-FU and compounds 1a-1c. Cell viability was analyzed after the breast cancer MCF7 cells (FIG. 2A) and normal MEC1 cells (FIG. 2B) were treated with 5-FU or compounds 1a-1c at different concentrations. Data are presented as mean±SD, n=4.
(§2) Cell Counting Kit-8 (CCK8, Dojingo) was used to carry out the cytotoxicity assessment of the prodrugs. Seeded cells were treated with varying compound concentrations for 48-72 h and the CCK8 kit was used to measure the cytotoxicity. For NAC experiments, this ROS scavenger was pre-incubated with the cells for 2 h and then co-incubated with the prodrugs for additional 48 hours unless otherwise noted.
(§3) The anticancer effects of new compounds 1a and 1b were tested using the breast cancer MCF7 cells and normal MEC1 cells (FIGS. 2A and 2B). […] These differential killing results highlight the specificity of new prodrugs 1a-1b for cancer cells over normal cells. […] To further verify the role of ROS in the drug release process, the MTT assays was performed, using MCF7 cells pretreated with the ROS scavenger N-Acetyl-Cysteine (NAC).

The nature of series [1]: Cell viability (CCK8) in normal MEC1 cells. Type of series: cell-based. On the procedure:
as §1, §2, §3

Series [2] has as its system wild-type C57BL/6 male mice. The series can be described thus: Acute toxicity in mice. Type of series: in vivo. The settings on record: 100 mg/kg i.p. every other day for 15 days, compared to vehicle group. On the procedure: FIGS. 5A and 5B illustrate the survival rate (FIG. 5A) and body weight (FIG. 5B) curves of the various groups of mice. […] Mice were treated every other day by intraperitoneal (i.p.) injection for 15 days, the survival and body weights of the mice were recorded after treatment.
Mice were treated every other day by intraperitoneal (i.p.) injection for 15 days, the survival and body weights of the mice were recorded after treatment.

What is called viability is a read-out of living cells in per cent, often relative to untreated cells. Read a high viability as better survival.

Consider `CC1(C)OB(c2ccc(Cn3cc(F)c(=O)[nH]c3=O)cc2)OC1(C)C` [Compound 1a, 5-Fluoro-1-(4-(4,4,5,5-tetramethyl-1,3,2-dioxaborolan-2-yl)benzyl)pyrimidine-2,4(1H,3H)-dione], for which the “antiproliferative activity / anticancer effects” value with breast cancer MCF7 cells is on record as “comparable antiproliferative activity as that of the parent drug 5-FU”. The viability at 100 µM in series [1] was more than 95%. In addition, the body weights entry in series [2] is “no obvious changes”.
